Several values for one entry are separate records, joined by “and”; a condition that tells them apart may be missing. Equal entries are not always repeated. ± gives the expanded uncertainty stated by the source.
Conditions: Liquid, Closed cell (Static) method

Structure (SMILES): COC [dimethyl ether]
- vapor or sublimation pressure (233.13 K): 54.61 ± 1.4 kPa
- vapor or sublimation pressure (238.13 K): 68.49 ± 1.4 kPa
- vapor or sublimation pressure (243.16 K): 85.57 ± 1.4 kPa
- vapor or sublimation pressure (248.15 K): 105.59 ± 1.4 kPa
- vapor or sublimation pressure (253.15 K): 129.42 ± 1.4 kPa
- vapor or sublimation pressure (258.16 K): 157.53 ± 1.4 kPa
- vapor or sublimation pressure (263.16 K): 190.44 ± 1.4 kPa
- vapor or sublimation pressure (268.16 K): 228.48 ± 1.4 kPa
- vapor or sublimation pressure (273.15 K): 272.17 ± 1.5 kPa
- vapor or sublimation pressure (278.14 K): 321.87 ± 1.5 kPa
- vapor or sublimation pressure (283.16 K): 378.66 ± 1.5 kPa
- vapor or sublimation pressure (288.17 K): 443.57 ± 1.5 kPa
- vapor or sublimation pressure (293.16 K): 515.53 ± 1.6 kPa
- vapor or sublimation pressure (298.17 K): 596.21 ± 1.6 kPa
- vapor or sublimation pressure (303.16 K): 687.37 ± 1.7 kPa
- vapor or sublimation pressure (305.16 K): 726.26 ± 1.8 kPa
- vapor or sublimation pressure (308.16 K): 787.07 ± 1.8 kPa
- vapor or sublimation pressure (313.16 K): 897.59 ± 1.9 kPa
- vapor or sublimation pressure (316.15 K): 968.55 ± 2 kPa
- vapor or sublimation pressure (318.16 K): 1018.9 ± 2 kPa
- vapor or sublimation pressure (323.15 K): 1152.3 ± 2.2 kPa
- vapor or sublimation pressure (328.15 K): 1298.2 ± 2.3 kPa
- vapor or sublimation pressure (333.16 K): 1457.5 ± 2.5 kPa and 1457.8 ± 2.5 kPa
- vapor or sublimation pressure (338.15 K): 1631 ± 2.7 kPa
- vapor or sublimation pressure (343.15 K): 1818.8 ± 3 kPa
- vapor or sublimation pressure (348.15 K): 2022.5 ± 3.2 kPa
- vapor or sublimation pressure (353.15 K): 2242.7 ± 3.5 kPa
- vapor or sublimation pressure (353.16 K): 2243.1 ± 3.5 kPa
- vapor or sublimation pressure (358.14 K): 2479.9 ± 3.9 kPa
- vapor or sublimation pressure (363.15 K): 2735.7 ± 4.3 kPa
- vapor or sublimation pressure (368.16 K): 3010.8 ± 4.7 kPa
- vapor or sublimation pressure (373.15 K): 3305.7 ± 5.2 kPa
- vapor or sublimation pressure (378.15 K): 3622.6 ± 5.7 kPa
- vapor or sublimation pressure (383.14 K): 3962.2 ± 6.2 kPa
- vapor or sublimation pressure (388.15 K): 4331.5 ± 6.8 kPa
- vapor or sublimation pressure (393.16 K): 4725 ± 7.4 kPa
- vapor or sublimation pressure (398.16 K): 5146.8 ± 8 kPa
- vapor or sublimation pressure (400.38 K): 5355.8 ± 8.4 kPa
